Patent US20240142467A1, “Use of Biomarkers in the Treatment of Fibrotic Conditions with a PDE4B-inhibitor” (Boehringer Ingelheim International GmbH, priority 2022, published 2024)

System: patients with idiopathic pulmonary fibrosis
Assay: Phase 2 trial NCT04419506: change from baseline in FVC at 12 weeks
Assay type: in vivo, human
Conditions: for lung function (FVC) compared to placebo: non-AF-background and AF-background groups; for lung function (FVC) compared to placebo / mean change in FVC from baseline to Week 12 / median change in FVC: 18 mg twice daily; for probability that the compound is superior to placebo: Bayesian borrowing analysis; for median change in FVC / median difference in FVC change vs placebo: Bayesian borrowing
From the text: Patients with a usual interstitial pneumonia (UIP) or probable UIP pattern on high-resolution computed tomography consistent with idiopathic pulmonary fibrosis, confirmed by central review, were eligible (Raghu et al, AM j Respir Crit Care Med 2019; 200:1089-1092). Patients also had forced FVC ≥45% predicted, and diffusing capacity of the lungs for carbon monoxide (DLco) corrected for hemoglobin 25-<80% predicted. Patients were permitted to continue antifibrotic therapy (nintedanib or pirfenidone) if they had been receiving a stable dose for at least 8 weeks prior to screening. Patients with airways obstruction, recent respiratory tract infection, or a history of suicidal behavior in the past 2 years, were excluded.
The primary endpoint—change from baseline in FVC at Week 12—was evaluated separately in patients without and with background antifibrotics at baseline, and included all data collected while on treatment. The primary analysis was based on a Bayesian borrowing approach in order to incorporate historical data for the placebo arms within the groups treated without or with background antifibrotics via meta-analytic predictive priors that were made robust against prior-data conflicts (Schmidli et al, Biometrics 2014 70: 1023-1032). A vaguely informative prior was used for the arms using the PDE4 inhibitor of formula A′ (Compound of formula A′ in the following). The primary endpoint analysis was conducted in a two-step procedure. In the first step, the data from the current trial were analyzed with a restricted maximum likelihood-based approach using a mixed model with repeated measurements (MMRM). The analysis included the fixed, categorical effect of treatment at each visit, and the fixed, continuous effects of baseline FVC at each visit. Visit was treated as the repeated measure, with an unstructured covariance structure used to model the within-patient measurements. Based on this model, the adjusted mean changes from baseline in FVC at 12 weeks (and the related standard error) were calculated for the Compound of formula A′ and placebo arms within the patient groups without and with background antifibrotics. In the second step, the adjusted means in the placebo arms were combined with the meta-analytic predictive priors derived based on the clinical trials in the nintedanib clinical development program in idiopathic pulmonary fibrosis. In order to evaluate the treatment effects in each group, the posterior distribution for the treatment difference of the compound of formula A′ versus placebo with respect to the primary endpoint was used. The median of the posterior distribution for the treatment difference (and 95% credible intervals) was calculated as the primary analysis, and posterior probabilities that the treatment difference was higher than different boundaries were reported.
Missing data for the primary analysis (continuous endpoint) were not imputed. The MMRM analysis allows for missing data, assuming they are missing at random. Sensitivity analyses were conducted to investigate the potential effect of missing data as well as early discontinuation via a treatment policy strategy, and a pooled analysis combining all patients irrespective of background treatment with antifibrotics.
As this was an exploratory trial, no confirmatory testing and adjustment for multiplicity was planned. The sample size was chosen based on the evaluations of posterior probabilities for the change from baseline in FVC at Week 12, assuming a standard deviation of 200 mL and treatment differences of 70 mL and 20 mL in the patients treated without or with background antifibrotics, respectively.

[1] = with background antifibrotics, Week 12
[2] = without background antifibrotics, Week 12

With `[O-][S@+]1CCc2nc(N3CCC(c4ncc(Cl)cn4)CC3)nc(NC3(CO)CCC3)c21` [Compound of formula A′] the “lung function (FVC) compared to placebo” value was “stabilized lung function”, the “lung function (FVC) compared to placebo” value (listed as PDE4-inhibitor of formula A′) was “significantly slowed decrease in lung function” and the “adjusted mean change from baseline in FVC after 12 weeks” value (pooled group with and without background antifibrotics, MMRM) was “+4.6 ml”. For the same molecule, the “overall treatment effect on FVC (difference vs placebo)” value (pooled group with and without background antifibrotics, MMRM, Week 12) was 88.4 mL, the “probability that the compound is superior to placebo” value (with background antifibrotics) was 98.6% and the “mean change in FVC from baseline to Week 12” value (with background antifibrotics, MMRM) was “+2.7 mL”. The “difference in mean FVC change vs placebo” value (with background antifibrotics, MMRM, Week 12) was 80.4 mL, the “median change in FVC” value [1] was “+2.7 mL” and the “median difference in FVC change vs placebo” value [1] was 62.4 mL. The “probability that the compound is superior to placebo” value (without background antifibrotics) was 99.8%, the “mean change in FVC from baseline to Week 12” value (without background antifibrotics, MMRM) was “+6.1 mL” and the “difference in mean FVC change vs placebo” value (without background antifibrotics, MMRM, Week 12) was 101.7 mL. The “median change in FVC” value [2] was “+5.7 mL” and the “median difference in FVC change vs placebo” value [2] was 88.4 mL.
